The values that follow come from PubChem BioAssay AID686998 (Broad Institute, 2013).

In this test the test system is Cryptococcus neoformans growth, Alamar Blue, 24 h. In words: Cryptococcus neoformans growth inhibition, dose response, Alamar Blue, cherry-picks (AID 686998).

The structures appear in SMILES notation. “And” between values parts separate entries of the source, which are not always exact repeats. Equal entries are not always repeated. Results filed as inconclusive are left out. The source made the active and inactive calls.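 How the source made its calls: active means falling signal with fitted half-maximal potency no higher than twice the top valid tested dose; inconclusive means poor fit quality, or flat fit spanning -70% to -30%; inactive means potency over limit, rising signal, or flat fit inside 30%.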

As to `O=C(C[C@@H]1CC[C@@H]2[C@H](COC[C@@H](O)CN2C(=O)Nc2ccc(Cl)cc2)O1)NC1Cc2ccccc2C1`, the IC50 was 6.79 µM.
The result for `Cc1ccc(OCCn2c(=S)[nH]c3ccccc32)c(C(C)C)c1` reads 0.913 µM; that for `C[C@H](NC(=O)C[C@H]1CC[C@@H](NC(=O)Cc2ccccn2)[C@@H](CO)O1)c1ccccc1`, 47.2 µM.
To `COC(=O)C1=C(C)N(Cc2ccc(Cl)cc2)C(=S)NC1c1cccc(F)c1` (centres undefined) belongs 20.4 µM; to `COCC(=O)Nc1ccc2c(c1)C(=O)N(C)C[C@H](OC)[C@@H](C)CN(C(=O)c1ccccc1)[C@@H](C)CO2`, > 70 µM (inactive).
The result for `CCc1nc(N2CCCCC2C)c2oc3ccccc3c2n1` (centres undefined) reads 17.6 µM; that for `CNC[C@H]1Oc2ncc(C#CCC(C)C)cc2C(=O)N([C@H](C)CO)C[C@H]1C`, > 70 µM (inactive); that for `O=C(C[C@H]1CC[C@@H]2[C@H](COC[C@H](O)CN2CC2CCOCC2)O1)NCc1ccc(Cl)cc1`, 70 µM.
Regarding `Cc1ccc(S(=O)(=O)N(C)C[C@H]2Oc3c(cccc3N(C)C)C(=O)N([C@@H](C)CO)C[C@H]2C)cc1`, the IC50 was > 70 µM (inactive).
The result for `COc1ccc(N2CCN(C(=O)CSc3ncnc4c3cnn4-c3ccccc3C)CC2)cc1` reads 53.8 µM; that for `COC(=O)C1=C(C)N(Cc2ccc(Br)cc2)C(=S)NC1c1cccc(Br)c1` (centres undefined), 6.53 µM; that for `COC(=O)C1=C(C)N(Cc2ccc(Br)cc2)C(=S)NC1c1ccc(OC)cc1` (centres undefined), 26 µM and 32.8 µM.
The result for `O=C(c1cccnc1)N1C[C@H]2[C@@H](c3ccccc31)[C@@H](CO)N2C(=O)Nc1ccc(F)cc1` reads 6.72 µM; that for `COC(=O)C1=C(C)N(Cc2ccccc2)C(=S)N[C@H]1c1ccc(Br)cc1`, 4.51 µM; that for `C/C=C/c1ccc([C@@H]2[C@@H](C#N)N(S(=O)(=O)c3cccc(F)c3)[C@@H]2CO)cc1`, 33.6 µM.
The result for `CC(C)NC(=O)N(C)C[C@H]1Oc2c(NS(=O)(=O)c3ccc(Cl)cc3)cccc2C(=O)N([C@@H](C)CO)C[C@@H]1C` reads 41.8 µM.
Consider `CC(C)NC(=O)Nc1ccc2c(c1)C(=O)N([C@@H](C)CO)C[C@@H](C)[C@@H](CN(C)C(=O)NC1CCCCC1)OCCCC[C@H](C)O2`, for which the IC50 is less than 0.26 µM.
The result for `O=C(C[C@H]1CC[C@H]2[C@@H](COC[C@H](O)CN2Cc2cc(F)cc(F)c2)O1)Nc1nccs1` reads > 70 µM (inactive).
The result for `O=C(Nc1ccc(N2CCOCC2)cc1N1CCOCC1)c1cccc([N+](=O)[O-])c1` reads 67 µM; that for `C[C@H](NC(=O)C[C@@H]1C=C[C@H](NC(=O)CN2CCOCC2)[C@H](CO)O1)c1ccccc1`, 44.8 µM; that for `Cc1c(C(=O)NC(=S)Nc2ccccc2N2CCCC2)cccc1[N+](=O)[O-]`, 2.71 µM.
The result for `CO[C@H]1CN(C)C(=O)c2ccc(NC(=O)NC(C)C)cc2OC[C@@H](C)NC[C@H]1C` reads 1.08 µM.
As to `CN1c2ccc(-c3ccc(F)cc3)cc2[C@@H]2[C@@H](CCN2C(=O)C2CCOCC2)[C@@H]1CO`, the IC50 is 0.756 µM.
To `O=C(C[C@@H]1C=C[C@@H](NC(=O)Nc2cc(F)ccc2F)[C@H](CO)O1)NCCCN1CCOCC1` belongs 68.3 µM.
To `O=C(NC(=S)Nc1cc(Cl)ccc1N1CCOCC1)c1ccccc1[N+](=O)[O-]` belongs 7.86 µM.
In the case of `COC(=O)C1=C(C)N(CC(C)C)C(=S)NC1c1ccc(-c2ccccc2)cc1` (centres undefined), the IC50 is 3.78 µM and 3.99 µM.
To `Fc1ccccc1NC(=S)NCCc1cccc(Cl)c1` belongs 16 µM; to `CC(C)c1ccc(OCC(=O)NC(C)c2ccccc2)cc1` (centres undefined), 49.5 µM.
To `CC(=O)c1cccc(NC(=S)NC2CCCCCCC2)c1` belongs 10.7 µM.
To `CC(=O)N[C@H]1CC[C@@H](CCNC(=O)C2CCC2)O[C@H]1CO` belongs 50.2 µM; to `CCCCNC(=S)N/N=C/c1ccc(C#N)cc1`, 2.73 µM; to `CC12CC3CC(C)(C1)CC(C(=O)NC(=S)N1CCCCC1)(C3)C2`, 15.5 µM.
Consider `C[C@@H]1CN([C@@H](C)CO)S(=O)(=O)c2ccc(C3=CCCC3)cc2O[C@@H]1CN(C)Cc1ccccc1F`, for which the IC50 was 31.3 µM.
To `C[C@H](CO)N1C[C@H](C)[C@H](CN(C)S(=O)(=O)c2cn(C)cn2)Oc2ncc(/C=C/c3ccccc3)cc2C1=O` belongs 60.1 µM; to `CCCNC(=O)[C@H]1[C@H](CO)[C@H]2Cn3c(cccc3=O)[C@@H]1N2C(=O)Nc1cc(F)ccc1F`, 68.5 µM.
To `COC(=O)C1=C(C)N(Cc2ccc(Cl)cc2)C(=S)NC1c1ccc(Br)cc1` (centres undefined) belongs 14.7 µM.
The result for `CC(NC(=O)COc1ccccc1Cl)c1ccccc1` (centres undefined) reads 0.88 µM; that for `Cc1c(Cl)cccc1NC(=S)NCCc1ccc(Cl)cc1`, 5.38 µM.
For `Cc1cc(Cl)ccc1NC(=S)NCc1ccc(F)cc1`, the IC50 is 15.5 µM.
The result for `CCc1ccc(C(=O)NC(=S)Nc2ccccc2N2CCOCC2)cc1` reads 9.06 µM; that for `Cc1ccc(S(=O)(=O)N2CC[C@@H]3[C@H](CO)Nc4ccc(-c5ccccc5F)cc4[C@@H]32)cc1`, 0.997 µM.
To `CN1c2ccc(-c3ccc(F)cc3)cc2[C@H]2[C@H](CCN2S(=O)(=O)c2cccc(F)c2)[C@H]1CO` belongs 6.07 µM.
In the case of `C[C@@H]1CN([C@H](C)CO)C(=O)c2cc(NS(=O)(=O)c3cn(C)cn3)ccc2O[C@@H](C)CCCCO[C@H]1CN(C)C`, the IC50 was 62.9 µM.
To `COC(=O)C1=C(C)N(Cc2ccc(F)cc2)C(=S)NC1c1ccccc1` (centres undefined) belongs 29.4 µM.
Regarding `CCOC(=O)c1c(-c2ccc(-c3ccccc3)cc2)csc1NC(=O)CNCCN(C)C`, the IC50 is 15 µM.
The result for `COc1ccc(CN(C)C[C@@H]2OCCCC[C@@H](C)Oc3ccc(NC(=O)c4ccccc4)cc3C(=O)N([C@H](C)CO)C[C@@H]2C)cc1` reads > 70 µM (inactive).
To `C/C=C/c1ccc([C@@H]2[C@H]3CN(C(=O)Nc4ccc(OC)cc4)CCCCN3[C@H]2CO)cc1` belongs > 70 µM (inactive); to `O=C(C1CCOCC1)N1C[C@H]2[C@@H](c3ccccc31)[C@@H](CO)N2Cc1ccccc1Cl`, 1.88 µM; to `CN1c2ccc(Br)cc2[C@@H]2[C@@H](CCN2C(=O)Cc2cccnc2)[C@@H]1CO`, 2.15 µM.
To `Cc1cccc(C)c1NC(=O)C1(C)CCC(=O)N1CCCn1ccnc1` (centres undefined) belongs less than 0.26 µM; to `C[C@H]1CN([C@@H](C)CO)C(=O)CCCn2cc(nn2)CO[C@@H]1CN(C)Cc1ccc(C(F)(F)F)cc1`, 30.7 µM; to `CCOc1ccc(C(=O)NC(=S)Nc2ccccc2N2CCCCC2)cc1[N+](=O)[O-]`, 3.11 µM.
Take `COc1ccccc1NC(=O)c1cn(C)c(=O)c2cc(OC)c(OC)cc12`: the IC50 is 50.1 µM.
To `O=C(CN1CCOCC1)N[C@@H]1CC[C@@H](CCNC(=O)C2CCC2)O[C@@H]1CO` belongs 43.7 µM.
The result for `COc1cccc(NC(=S)NC(=O)Cc2ccc(Cl)cc2)c1` reads 5.24 µM.
The result for `O=C(c1cccc(F)c1)N1C[C@H]2[C@@H](c3ccccc31)[C@@H](CO)N2Cc1cocn1` reads > 70 µM (inactive); that for `C[C@@H]1CN([C@H](C)CO)C(=O)c2cccc(NC(=O)c3ccncc3)c2O[C@H]1CN(C)C(=O)Nc1ccc(C(F)(F)F)cc1`, 67.4 µM; that for `O=C(c1cccs1)N1CCN(c2nc3ccccc3s2)CC1`, > 70 µM (inactive).
With `Cc1ccc(C(=O)NC(=S)Nc2ccccc2N2CCCC2)cc1[N+](=O)[O-]`, the IC50 was 0.463 µM.

What is called IC50 is the concentration that gives 50% inhibition.
